Data from patent US8088822B2, “Use of fenretinide or bioactive derivatives thereof and pharmaceutical compositions comprising the same” (priority 2008, dated 2012).
Like-named read-outs stand apart in the source and are kept apart here.

How the values were obtained:
[1] = test system: CD34+CD38+ CML progenitor cells; assay: Apoptosis (Annexin V/7AAD, FACS) of CML progenitor cells; format: cell-based, human
From the text: (§1) Fresh bone marrow (BM) cells were obtained from 38 patients with CML and 5 non-leukemic donors, 25 AML, 17 ALL, and 8 normal specimens with informed consent according to the Declaration of Helsinki. Approval was obtained from Institutional Review Board at the School of Medicine in Shanghai Jiao Tong University. BM mononuclear cells were isolated by Ficoll density gradient centrifugation (Shanghai Second Reagent Factory, Shanghai, China). CD34^+ Cell were selected using EasySep® Human CD34 Positive Selection kit (Stem Cell Technologies, Vancouver, BC, Canada) according to the manufacturer's instructions. The purity of CD34 cells ranged between 92 and 98% in all samples detennined by flow cytometry. The CD34^+ cells were cultured in a serum-free medium (StemPro 34; Gibco BRL, Gaithersburg, Md.) supplemented with growth factors (PeproTech, London, United Kingdom) (20). The growth factors consisted of GM-CSF (200 pg/mL), G-CSF (1 ng/mL); SCF (200 pg/mL); LIF (50 pg/mL), MIP-1α (200 pg/mL) and IL-6 (1 ng/mL).
(§2) Primitive AML and CML subpopulations (CD34^+ cells) were identified using CD34-PE in combination with CD38-APC, and followed by double-labeling with 7AAD and Annexin V antibodies for apoptosis assessment. The CD34^+ cells were first stained with antibodies against the surface markers CD34-PE and CD38-APC (Beckman Coulter, Fullerton, Calif.) and incubated at room temperature for 15 minutes. Cells were then washed with cold PBS and resuspended in 200 μL annexin V 1×binding buffer (10 mM HEPES/NaOH, pH 7.4, 140 mM NaCl, 2.5 mM CaCl2), 5 μL AnnexinV-FITC (BD Phanningen, San Diego, Calif.) and 7-aminoactinomycin (7-AAD, 0.25 mg/mL) (Molecular Probes, Eugene, Oreg.). Subsequently, the samples were incubated at room temperature for 15 minutes and analyzed by flow cytometry.
It would be of significance to find out the subpopulations specifically targeted by fenretinide. We divided the CML patient specimens into mononuclear cells and CD34^+ cells. The CD34^+ CML cells are primitive cells including CML stem and progenitor cells. […]

[2] = test system: normal hematopoietic stem cells (HSC); assay: Apoptosis/toxicity in normal hematopoietic stem cells; format: cell-based, human; conditions: representative specimen
From the text: as §1
(§3) Primitive AML and CML subpopulations (CD34^+ cells) were identified using CD34-PE in combination with CD38-APC, and followed by double-labeling with 7AAD and Annexin V antibodies for apoptosis assessment. […] Subsequently, the samples were incubated at room temperature for 15 minutes and analyzed by flow cytometry. […]

CML mononuclear cells = assay: Apoptosis of CML mononuclear cells; format: cell-based, human; conditions: CML patient specimens
From the text: as §1, §3

AML CD34+ cells = assay: Apoptosis/viability of AML CD34+ cells (annexin-V FITC/7AAD); format: cell-based, human; conditions: for viability at 5 µM: 5 μM fenretinide
From the text: as §1, §2
(§4) Primary acute leukemia cells from specimens including AML and ALL are mostly quiescent, especially for the subpopulations of leukemic CD34^+ cells (Guan and Hogge, 2000). To verify if this quiescent leukemia cells are sensitive to fenretinide, we compared the effects of fenretinide on primary leukemia versus normal specimens during short-term suspension culture. CD34^+ cells were isolated from primary acute leukemia specimens, and subjected to DNA content analysis through propidium iodide staining and followed by flow cytometry. The majority of isolated CD34^+ cells from AML and ALL were in G0/G1 phase of the cell cycle, indicating the quiescent feature of leukemia CD34^+ cells (FIG. 4A). Then, apoptosis profiles of AML CD34^+ cells and normal CD34^+ cells were examined through annexin-V FITC and 7AAD double staining (FIG. 4B).

ALL CD34+ cells = assay: Viability of ALL CD34+ cells; format: cell-based; conditions: Homo sapiens
From the text: as §1, §3

[3] = test system: normal hematopoietic CD34+ cells; assay: Apoptosis/viability of normal hematopoietic CD34+ cells; format: cell-based, human
From the text: as §1, §2, §4

U937 [4] = assay: Growth inhibition and combination index in AML cell line U937; format: cell-based; conditions: U937, single agent
Protocol: The combination Index (CI) was used to test the combination effect of fenretinide and Ara-C on growth inhibition in AML cell line U937. The CI was calculated according to the classic isobologram equation: CI=d1/D1+d2/D2. In this equation, D1 and D2 represent the doses of drug 1 and drug 2 alone, required to produce x % effect, and d1 and d2 are the doses of drugs 1 and 2 in combination required to produce the same effect. And CI<1, CI>1 and CI=1 represent the synergism, […], respectively.

U937 [5] = assay: Apoptosis in AML cell line U937; format: cell-based; conditions: U937, within 48 hours, alone or combined
Protocol: (§5) 2×10^5 cultured cells were used for evaluating apoptosis using an ApoAlert Annexin V-FITC Apoptosis Kit (BD Biosciences). Cells were washed once by PBS, resuspended in 200 μl Annexin-V binding buffer, and then stained with Annexin V-FITC 5 μl, PI 10 μl for 15 min at room temperature in the dark. Cells were subsequently analyzed by flow cytometry.
There are two observations that drive us in further exploring alternative therapeutic combinations. As illustrated in Example 6, proteasome inhibitors can potentate fenretinide-induced apoptosis in leukemia. […] The apoptosis rates were quite low when treated alone within 48 hours (nearly 5%), and the number doubled when treated by fenretinide and MG132.

K562 = assay: Apoptosis in CML cell line K562; format: cell-based; conditions: 4 μM fenretinide, 0.25 μM imatinib, 0.1 μM MG132, alone or combined
Protocol: as §5

SMILES: CC1=C(/C=C/C(C)=C/C=C/C(C)=C/C(=O)Nc2ccc(O)cc2)C(C)(C)CCC1 [fenretinide, N-(4-hydroxyphenyl)retinamide]
- apoptosis of CD34+CD38+ cells ([1]; 2 μM fenretinide): 17.83%±6.01%
- apoptosis of CD34+CD38+ cells ([1]; 4 μM fenretinide): 30.60%±4.93%
- apoptosis of CD34+CD38+ cells ([1]; 6 μM fenretinide): 33.08%±19.43%
- change in the cell proportion of normal HSC [2]: 5.36%
- apoptosis in normal HSC ([2]; fenretinide alone or co-treatment with imatinib): 19.08%
- apoptosis in mononuclear cells (CML mononuclear cells): little apoptosis
- viability at 5 µM (AML CD34+ cells; Homo sapiens, 18 h, read-out: viability of most resistant AML specimen (AML #8)): 89.7%
- viability at 5 µM (AML CD34+ cells; Homo sapiens, 18 h, read-out: viability of most sensitive AML specimen (AML #20)): 0.5%
- viability at 5 µM (AML CD34+ cells; Homo sapiens, 18 h in culture, read-out: mean viability of AML CD34+ cells): 45.4%
- viability at 7.5 µM (AML CD34+ cells; Homo sapiens, 7.5 μM fenretinide, read-out: mean viability of AML CD34+ specimens): 12.2%
- apoptosis induction in AML CD34+ cells (AML CD34+ cells; short-term suspension culture): time- and dose-dependant manner
- viability at 5 µM (ALL CD34+ cells; 5 μM fenretinide): 58%
- viability at 7.5 µM (ALL CD34+ cells; 7.5 μM fenretinide): 20.9%
- viability of normal hematopoietic CD34+ cells ([3]; 5 μM fenretinide): 97.1%
- viability of normal hematopoietic CD34+ cells ([3]; 7.5 μM fenretinide): 58.1%
- safe dose (presumed) ([3]; from viability of normal CD34+ cells): below 5 μM
- response of normal hematopoietic CD34+ cells ([3]; short-term suspension culture): relative resistant
- dose alone required for growth inhibition rate of 65.47% (U937 [4]): 2.72 µM
- apoptosis rate (U937 [5]): ~5%
- apoptosis rate (K562): 2.46%
